Kb and EC50 data for twelve compounds are collected here from patent US20090232838A1, “Ligands of melanocortin receptors” (priority 2005, published 2009).

What all share (format): cell-based
The target in one experiment is T1, hMC3-R (Homo sapiens, UniProt P41968).
T1 construct: expressed in transfected cells; host or cells: CHO-K1
Kind of experiment: cyclic AMP bioassay, hMC3-R.

A further experiment has as its target T2, hMC5-R (Homo sapiens, UniProt P33032).
T2 construct: expressed in transfected cells; host or cells: CHO-K1
The experiment can be described thus: cyclic AMP bioassay, hMC5-R.

For a further experiment, the target named is T3, hMC1-R (Homo sapiens, UniProt Q01726).
T3 construct: expressed in transfected cells; host or cells: CHO-K1
T3 sequence (Q01726 whole entry): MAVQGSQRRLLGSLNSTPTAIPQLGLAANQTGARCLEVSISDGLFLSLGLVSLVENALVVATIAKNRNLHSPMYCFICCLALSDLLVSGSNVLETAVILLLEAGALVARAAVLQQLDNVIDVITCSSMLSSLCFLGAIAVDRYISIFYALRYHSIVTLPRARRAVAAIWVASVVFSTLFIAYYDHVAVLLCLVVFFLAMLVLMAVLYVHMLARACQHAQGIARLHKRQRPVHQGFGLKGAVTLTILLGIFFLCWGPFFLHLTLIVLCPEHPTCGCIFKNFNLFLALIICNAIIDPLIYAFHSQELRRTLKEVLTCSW
Kind of experiment: cyclic AMP bioassay, hMC1-R.

Another experiment has as its target T4, hMC4-R (Homo sapiens, UniProt P32245).
T4 construct: expressed in transfected cells; host or cells: CHO-K1
The experiment can be described thus: cyclic AMP bioassay, hMC4-R.

The mark [1] stands for this setting: Table 3A, cAMP in CHO-K1 cells, antagonist potency by Schild analysis, read-out: Kb hMC3-R.
[2] abbreviates: Table 3A, cAMP in CHO-K1 cells, antagonist potency by Schild analysis, read-out: Kb hMC4-R.

SMILES strings stand for the structures. Read-outs that look alike come from different tables or passages of the source. Where a SMILES comes first, the peptide text is derived from it. Bridges are numbered along the chain shown (N, C = ends). [ ]: non-standard residue; d: D form. 1Nal = N[C@@H](Cc1cccc2ccccc12)C(=O)O; d2Nal = N[C@H](Cc1ccc2ccccc2c1)C(=O)O

T4 sequence (P32245 whole entry): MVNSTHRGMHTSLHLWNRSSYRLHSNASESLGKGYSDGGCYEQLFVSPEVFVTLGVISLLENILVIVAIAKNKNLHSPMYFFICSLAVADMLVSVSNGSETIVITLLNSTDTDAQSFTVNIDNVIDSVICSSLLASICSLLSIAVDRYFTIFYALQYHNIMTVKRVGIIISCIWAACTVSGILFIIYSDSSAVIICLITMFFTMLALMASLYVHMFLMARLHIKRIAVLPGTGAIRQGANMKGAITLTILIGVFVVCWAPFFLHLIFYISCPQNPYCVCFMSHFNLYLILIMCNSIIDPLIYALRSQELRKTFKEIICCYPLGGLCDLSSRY
T2 sequence (P33032 whole entry): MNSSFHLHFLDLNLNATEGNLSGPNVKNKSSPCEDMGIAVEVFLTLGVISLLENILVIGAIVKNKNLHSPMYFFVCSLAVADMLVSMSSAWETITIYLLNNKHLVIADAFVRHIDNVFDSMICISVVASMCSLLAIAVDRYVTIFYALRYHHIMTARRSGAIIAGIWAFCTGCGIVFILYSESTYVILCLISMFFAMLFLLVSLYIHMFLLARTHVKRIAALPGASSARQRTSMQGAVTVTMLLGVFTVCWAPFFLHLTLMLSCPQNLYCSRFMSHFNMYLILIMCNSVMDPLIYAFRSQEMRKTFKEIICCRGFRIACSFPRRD
T1 sequence (P41968 whole entry): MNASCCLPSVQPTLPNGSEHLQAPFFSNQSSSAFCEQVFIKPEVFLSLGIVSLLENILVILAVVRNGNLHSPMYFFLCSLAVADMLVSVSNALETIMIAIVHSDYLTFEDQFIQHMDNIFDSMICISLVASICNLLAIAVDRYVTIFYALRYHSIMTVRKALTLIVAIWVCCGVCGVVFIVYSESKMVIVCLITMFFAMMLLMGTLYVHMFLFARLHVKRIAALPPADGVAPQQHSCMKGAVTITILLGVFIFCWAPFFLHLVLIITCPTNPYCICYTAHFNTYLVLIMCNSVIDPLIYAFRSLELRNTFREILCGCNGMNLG
Method for hMC1-R: (§1) Intracellular cyclic AMP (cAMP) levels were determined by an electrochemiluminescence (ECL) assay (Meso Scale Discovery®, Gaithersburg, Md.; referred to hereinafter as MSD). […] Transgenic CHO-K1 cells stably expressing hMC receptor subtypes 1, 3, 4 or 5 were dispensed at a density of approximately 7,000 cells/well in 384-well Multi-Arrays plates (MSD) containing integrated carbon electrodes and coated with anti-CAMP antibody. Increasing concentrations of the test compounds were added and the cells were incubated for approximately 40 minutes at approximately 37° C. […] At the end of the second incubation period read buffer (Tris-buffered solution containing an ECL co-reactant and Triton X-100 at ph 7.8) was added and the cAMP levels in the cell lysates were immediately determined by ECL detection with a Sector Imager 6000 Reader® (MSD). Data were analyzed using a computer-assisted non-linear regression analysis (XL fit; IDBS) and reported as either an EC50 value or a Kb value.
(§2) The Kb value reflects the potency of an antagonist and is determined by Schild analysis. In brief, concentration-response curves of an agonist are carried out in the presence of increasing concentrations of an antagonist. […] It is calculated by extrapolating the line on a Schild plot to zero on the y-axis.
Method for hMC4-R: as §1, §2

What is called EC50 is the concentration giving half of the maximal effect. For `CC(=O)N[C@H]1CSSC[C@@H](C(=O)N2CCC[C@H]2C(=O)N2CCC[C@H]2C(=O)N[C@@H](CCCCN)C(=O)N[C@@H](CC(=O)O)C(=O)NCCC(=O)N[C@@H](Cc2ccc(O)cc2)C(=O)NCC(=O)N[C@@H](CCCNC(=N)N)C(=O)N[C@@H](CCCCN)C(=O)N[C@@H](CCCCN)C(=O)N[C@@H](CCCNC(=N)N)C(=O)N[C@@H](CCCNC(=N)N)C(=O)N[C@@H](CCCNC(=N)N)C(=O)N[C@@H](CCCNC(=N)N)C(=O)N[C@@H](CCC(N)=O)C(=O)N[C@@H](CCCNC(=N)N)C(N)=O)NC(=O)[C@H](C)NC(=O)[C@H](Cc2c[nH]c3ccccc23)NC(=O)[C@H](CCCNC(=N)N)NC(=O)[C@@H](Cc2ccc3ccccc3c2)NC(=O)[C@H](Cc2c[nH]cn2)NC(=O)[C@H](CCC(=O)O)NC1=O`, the Kb at hMC3-R (setting [1]) stood at 36 nM; at hMC4-R (setting [2]), 7.12 nM. In addition, the concentration for a half-maximal effect (EC50) at hMC5-R (Table 3A, cAMP in CHO-K1 cells, agonist, read-out: EC50 hMC5-R) amounted to 58.9 nM; on hMC1-R (Table 3A, cAMP in CHO-K1 cells, agonist, read-out: EC50 hMC1-R), 16.9 nM.

As for `CC(=O)N[C@H]1CSSC[C@@H](C(=O)N2CCC[C@H]2C(=O)N2CCC[C@H]2C(=O)N[C@@H](CCCCN)C(=O)N[C@@H](CC(=O)O)C(N)=O)NC(=O)[C@H](C)NC(=O)[C@H](Cc2cccc3ccccc23)NC(=O)[C@H](CCCNC(=N)N)NC(=O)[C@@H](Cc2ccc3ccccc3c2)NC(=O)[C@H](Cc2c[nH]cn2)NC(=O)[C@H](CCC(=O)O)NC1=O` [Ac-c(Cys-Glu-His-D-2-Nal-Arg-1-Nal-Ala-Cys)-Pro-Pro-Lys-Asp-NH2] (Ac-CEH[d2Nal]R[1Nal]ACPPKD-NH2; disulfide 1-8), the Kb at hMC3-R was 105 nM; at hMC4-R, 5.92 nM. Moreover, the results for the EC50 on hMC5-R and at hMC1-R were 104 nM and 269 nM, respectively.

Consider `CC(=O)N[C@H]1CSSC[C@@H](C(=O)N2CCC[C@H]2C(=O)N2CCC[C@H]2C(=O)N[C@@H](CCCCN)C(=O)N[C@@H](CC(=O)O)C(=O)NCCC(=O)NCC(=O)N[C@@H](CCCNC(=N)N)C(=O)N[C@@H](CCCCN)C(=O)N[C@@H](CCCNC(=N)N)C(=O)N[C@@H](CCCNC(=N)N)C(=O)N[C@@H](CCCNC(=N)N)C(=O)N[C@@H](CCC(N)=O)C(=O)N[C@@H](CCCNC(=N)N)C(=O)N[C@@H](CCCNC(=N)N)C(=O)N[C@@H](CCCNC(=N)N)C(N)=O)NC(=O)[C@H](C)NC(=O)[C@H](Cc2cccc3ccccc23)NC(=O)[C@H](CCCNC(=N)N)NC(=O)[C@@H](Cc2ccc3ccccc3c2)NC(=O)[C@H](Cc2c[nH]cn2)NC(=O)[C@H](CCC(=O)O)NC1=O`, for which the Kb was determined as 181 nM on hMC3-R and 6.35 nM at hMC4-R. Further, the EC50 is 149 nM at hMC5-R and 45.5 nM on hMC1-R.

Take `CCCC[C@H](NC(C)=O)C(=O)N[C@H]1CSSC[C@@H](C(=O)NCCC(=O)N[C@@H](Cc2ccc(O)cc2)C(=O)NCC(=O)N[C@@H](CCCNC(=N)N)C(=O)N[C@@H](CCCNC(=N)N)C(=O)N[C@@H](CCCNC(=N)N)C(=O)N[C@@H](CCCNC(=N)N)C(=O)N[C@@H](CCCNC(=N)N)C(=O)N[C@@H](CCC(N)=O)C(=O)N[C@@H](CCCNC(=N)N)C(=O)N[C@@H](CCCNC(=N)N)C(=O)N[C@@H](CCCNC(=N)N)C(N)=O)NC(=O)[C@H](Cc2c[nH]c3ccccc23)NC(=O)[C@H](CCCNC(=N)N)NC(=O)[C@@H](Cc2ccccc2)NC(=O)[C@H](Cc2c[nH]cn2)NC(=O)[C@@H](C)NC1=O`: the Kb turned out to be 10.5 nM on hMC3-R and 0.843 nM at hMC4-R. Besides, the results for the EC50 at hMC5-R and at hMC1-R were 4900 nM and 7.86 nM, respectively.

For `CC(=O)N[C@H]1CSSC[C@@H](C(=O)N2CCC[C@H]2C(=O)N2CCC[C@H]2C(=O)N[C@@H](CCCCN)C(=O)N[C@@H](CC(=O)O)C(=O)NCCC(=O)N[C@@H](CCCNC(=N)N)C(=O)N[C@@H](CCCCN)C(=O)N[C@@H](CCCNC(=N)N)C(=O)N[C@@H](CCCNC(=N)N)C(=O)N[C@@H](CCCNC(=N)N)C(=O)N[C@@H](CCC(N)=O)C(=O)N[C@@H](CCCNC(=N)N)C(=O)N[C@@H](CCCNC(=N)N)C(=O)N[C@@H](CCCNC(=N)N)C(N)=O)NC(=O)[C@H](C)NC(=O)[C@H](Cc2ccc3ccccc3c2)NC(=O)[C@H](CCCNC(=N)N)NC(=O)[C@@H](Cc2ccc3ccccc3c2)NC(=O)[C@H](Cc2c[nH]cn2)NC(=O)[C@H](CCC(=O)O)NC1=O`, the Kb came out at 9.22 nM on hMC3-R and 5.87 nM on hMC4-R. The values for the EC50 on hMC5-R and on hMC1-R were 39.7 nM and 23.7 nM, respectively.

Consider `CCCC[C@H](NC(C)=O)C(=O)N[C@H]1CC(=O)NCCCC[C@@H](C(=O)N2CCC[C@H]2C(=O)N2CCC[C@H]2C(=O)N[C@@H](CCCCN)C(=O)N[C@@H](CC(=O)O)C(=O)N[C@@H](Cc2ccc(O)cc2)C(=O)NCC(=O)N[C@@H](CCCNC(=N)N)C(=O)N[C@@H](CCCCN)C(=O)N[C@@H](CCCCN)C(=O)N[C@@H](CCCNC(=N)N)C(=O)N[C@@H](CCCNC(=N)N)C(=O)N[C@@H](CCC(N)=O)C(=O)N[C@@H](CCCNC(=N)N)C(=O)N[C@@H](CCCNC(=N)N)C(=O)N[C@@H](CCCNC(=N)N)C(N)=O)NC(=O)[C@H](Cc2c[nH]c3ccccc23)NC(=O)[C@H](CCCNC(=N)N)NC(=O)[C@@H](Cc2ccc3ccccc3c2)NC(=O)[C@H](Cc2c[nH]cn2)NC1=O`, for which the Kb on hMC3-R (setting [1]) was 14.1 nM; at hMC4-R (setting [2]), 22.8 nM.

Turning to `CCCC[C@H](NC(C)=O)C(=O)N[C@H]1CC(=O)NCCCC[C@@H](C(=O)NCCC(=O)N[C@@H](Cc2ccc(O)cc2)C(=O)NCC(=O)N[C@@H](CCCNC(=N)N)C(=O)N[C@@H](CCCCN)C(=O)N[C@@H](CCCCN)C(=O)N[C@@H](CCCNC(=N)N)C(=O)N[C@@H](CCCNC(=N)N)C(=O)N[C@@H](CCC(N)=O)C(=O)N[C@@H](CCCNC(=N)N)C(=O)N[C@@H](CCCNC(=N)N)C(=O)N[C@@H](CCCNC(=N)N)C(N)=O)NC(=O)[C@H](Cc2c[nH]c3ccccc23)NC(=O)[C@H](CCCNC(=N)N)NC(=O)[C@@H](Cc2ccc3ccccc3c2)NC(=O)[C@H](Cc2c[nH]cn2)NC1=O`, the figures for the Kb on hMC3-R (setting [1]) and at hMC4-R (setting [2]) were 220 nM and 4.07 nM, respectively.

On to `CCCC[C@H](NC(=O)COCCOCCNC(=O)[C@H](CCCNC(=N)N)NC(=O)[C@H](CCCNC(=N)N)NC(=O)[C@H](CCCNC(=N)N)NC(=O)[C@H](CCC(N)=O)NC(=O)[C@H](CCCNC(=N)N)NC(=O)[C@H](CCCNC(=N)N)NC(=O)[C@H](CCCCN)NC(=O)[C@H](CCCCN)NC(=O)[C@H](CCCNC(=N)N)NC(=O)CNC(=O)[C@@H](N)Cc1ccc(O)cc1)C(=O)N[C@H]1CC(=O)NCCCC[C@@H](C(N)=O)NC(=O)[C@H](Cc2c[nH]c3ccccc23)NC(=O)[C@H](CCCNC(=N)N)NC(=O)[C@@H](Cc2ccc3ccccc3c2)NC(=O)[C@H](Cc2c[nH]cn2)NC1=O`, for which the Kb on hMC3-R (setting [1]) was found to be 395 nM; on hMC4-R (setting [2]), 16.8 nM.

With `CC(=O)N[C@H]1CSSC[C@@H](C(=O)N2CCC[C@H]2C(=O)N2CCC[C@H]2C(=O)N[C@@H](CCCCN)C(=O)N[C@@H](CC(=O)O)C(=O)NCCOCCOCC(=O)N[C@@H](Cc2ccc(O)cc2)C(=O)NCC(=O)N[C@@H](CCCNC(=N)N)C(=O)N[C@@H](CCCCN)C(=O)N[C@@H](CCCCN)C(=O)N[C@@H](CCCNC(=N)N)C(=O)N[C@@H](CCCNC(=N)N)C(=O)N[C@@H](CCC(N)=O)C(=O)N[C@@H](CCCNC(=N)N)C(=O)N[C@@H](CCCNC(=N)N)C(=O)N[C@@H](CCCNC(=N)N)C(N)=O)NC(=O)CNC(=O)[C@H](Cc2c[nH]c3ccccc23)NC(=O)[C@H](CCCNC(=N)N)NC(=O)[C@@H](Cc2ccc3ccccc3c2)NC(=O)[C@H](Cc2c[nH]cn2)NC(=O)[C@H](CCC(=O)O)NC1=O`, the Kb was determined as 17.7 nM at hMC3-R (setting [1]) and 1.49 nM at hMC4-R (setting [2]).

Consider `CCCC[C@H](NC(=O)[C@H](CCCNC(=N)N)NC(=O)[C@H](CCCNC(=N)N)NC(=O)[C@H](CCCNC(=N)N)NC(=O)[C@H](CCC(N)=O)NC(=O)[C@H](CCCNC(=N)N)NC(=O)[C@H](CCCNC(=N)N)NC(=O)[C@H](CCCCN)NC(=O)[C@H](CCCCN)NC(=O)[C@H](CCCNC(=N)N)NC(=O)CNC(=O)[C@@H](N)Cc1ccc(O)cc1)C(=O)N[C@H]1CC(=O)NCCCC[C@@H](C(N)=O)NC(=O)[C@H](Cc2c[nH]c3ccccc23)NC(=O)[C@H](CCCNC(=N)N)NC(=O)[C@@H](Cc2ccc3ccccc3c2)NC(=O)[C@H](Cc2c[nH]cn2)NC1=O`, for which the Kb on hMC3-R (setting [1]) turned out to be 4500 nM; at hMC4-R (setting [2]), 105 nM.

With `CC(=O)N[C@H]1CSSC[C@@H](C(=O)N2CCC[C@H]2C(=O)N2CCC[C@H]2C(=O)N[C@@H](CCCCN)C(=O)N[C@@H](CC(=O)O)C(=O)N[C@@H](Cc2ccc(O)cc2)C(=O)NCC(=O)N[C@@H](CCCNC(=N)N)C(=O)N[C@@H](CCCCN)C(=O)N[C@@H](CCCCN)C(=O)N[C@@H](CCCNC(=N)N)C(=O)N[C@@H](CCCNC(=N)N)C(=O)N[C@@H](CCC(N)=O)C(=O)N[C@@H](CCCNC(=N)N)C(=O)N[C@@H](CCCNC(=N)N)C(=O)N[C@@H](CCCNC(=N)N)C(N)=O)NC(=O)CNC(=O)[C@H](Cc2c[nH]c3ccccc23)NC(=O)[C@H](CCCNC(=N)N)NC(=O)[C@@H](Cc2ccc3ccccc3c2)NC(=O)[C@H](Cc2c[nH]cn2)NC(=O)[C@H](CCC(=O)O)NC1=O`, the values for the Kb at hMC3-R (setting [1]) and at hMC4-R (setting [2]) were 233 nM and 26 nM, respectively.

`CCCC[C@H](N)C(=O)N[C@H]1CC(=O)NCCCC[C@@H](C(=O)NCCC(=O)N[C@@H](Cc2ccc(O)cc2)C(=O)NCC(=O)N[C@@H](CCCNC(=N)N)C(=O)N[C@@H](CCCCN)C(=O)N[C@@H](CCCCN)C(=O)N[C@@H](CCCNC(=N)N)C(=O)N[C@@H](CCCNC(=N)N)C(=O)N[C@@H](CCC(N)=O)C(=O)N[C@@H](CCCNC(=N)N)C(=O)N[C@@H](CCCNC(=N)N)C(=O)N[C@@H](CCCNC(=N)N)C(N)=O)NC(=O)[C@H](Cc2c[nH]c3ccccc23)NC(=O)[C@H](CCCNC(=N)N)NC(=O)[C@@H](Cc2ccc3ccccc3c2)NC(=O)[C@H](Cc2c[nH]cn2)NC1=O`: the values for the Kb at hMC3-R (setting [1]) and at hMC4-R (setting [2]) were 207 nM and 18.5 nM, respectively.
